Data published in patent publication US10123540B1, “Disinfectant material” (PEN Inc., priority 2014, dated 2018).

Experiments:
[1] = test system: feline calcivirus ATCC VR-782; test: Antiviral surface test, Modified ASTM E1053, limited to 10 minutes; conditions: 20 mg/L in a water based solution applied to a surface; 10 minutes exposure; non-enveloped virus
Procedure: Copper ions (20 mg/L) in a water based solution were applied to a surface with the non-enveloped feline calcivirus ATCC VR-782. […] In our case we wanted to have an idea about the rate of killing and this is why we limited the test to 10 minutes.

[2] = test system: H1N1 Influenza A, Strain A-California; test: Towelette antiviral test, modified AATCC 100; conditions: towelettes embedded with water based solution at 20 mg/L
Procedure: A number of other tests were performed against H1N1 Influenza A, Strain A-California, and Human Corona Virus 229E.

Human Corona Virus 229E = conditions: 10 minutes

[Cu+2] [Copper ions]
reduction relative to the control [1]: 82.22%

copper iodide
reduction vs time zero control [2]: 99.7%
percent reduction (Human Corona Virus 229E): 99.99%
